Eight compounds from ChEMBL document CHEMBL1121455, “N-(alpha-Hydroxyalkanoyl) derivatives of Leu-Val-Phe-OCH3 as inhibitors of renin” (J Med Chem, 1980) can be followed below.

pKi: −log10 of the molar value. Residues, ends and D or L forms follow the SMILES beside them.

For the test, the target named is T1, Renin (Homo sapiens, UniProt P00797).
T1 sequence (P00797 whole entry): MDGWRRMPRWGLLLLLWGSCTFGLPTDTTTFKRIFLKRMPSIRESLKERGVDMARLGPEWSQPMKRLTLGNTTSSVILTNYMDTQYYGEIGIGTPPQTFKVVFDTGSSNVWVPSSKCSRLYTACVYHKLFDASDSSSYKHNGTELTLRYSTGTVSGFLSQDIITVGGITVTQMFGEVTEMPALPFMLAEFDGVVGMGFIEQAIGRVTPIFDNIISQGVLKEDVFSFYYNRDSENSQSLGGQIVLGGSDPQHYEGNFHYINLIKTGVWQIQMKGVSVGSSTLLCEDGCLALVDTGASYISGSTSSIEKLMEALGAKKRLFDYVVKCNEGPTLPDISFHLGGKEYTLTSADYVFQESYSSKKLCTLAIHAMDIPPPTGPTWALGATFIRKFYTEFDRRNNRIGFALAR
As to the kind of experiment: Inhibition of human amniotic renin was tested and determined by Dixon plots.
`COC(=O)[C@H](Cc1ccccc1)NC(=O)[C@@H](NC(=O)[C@H](CC(C)C)NC(=O)[C@H](O)c1ccccc1)C(C)C`: the negative-log Ki (pKi) was 3.01.

In turn, `COC(=O)[C@H](Cc1ccccc1)NC(=O)[C@@H](NC(=O)[C@H](CC(C)C)NC(=O)[C@@H](O)C(C)C)C(C)C` gave a pKi of 3.52. Against the preceding compound, the pKi is 0.51 log units higher.

`COC(=O)[C@H](Cc1ccccc1)NC(=O)[C@@H](NC(=O)[C@H](CC(C)C)NC(=O)[C@@H](O)c1ccccc1)C(C)C` had a pKi of 3.28. Under `COC(=O)[C@H](Cc1ccccc1)NC(=O)[C@@H](NC(=O)[C@H](CC(C)C)NC(=O)[C@@H](N)CC(C)C)C(C)C` (HELM PEPTIDE1{L.L.V.F.[CO[*:1]]}$$$$V2.0) stands 2.94. The result for `COC(=O)[C@H](Cc1ccccc1)NC(=O)[C@@H](NC(=O)[C@H](CC(C)C)NC(=O)[C@@H](O)CC(C)C)C(C)C` reads 3.64; that for `COC(=O)[C@H](Cc1ccccc1)NC(=O)[C@@H](NC(=O)[C@H](CC(C)C)NC(=O)[C@@H](O)Cc1ccccc1)C(C)C` (HELM PEPTIDE1{[O=C([C@@H](O)Cc1ccccc1)[*:2]].L.V.F.[CO[*:1]]}$$$$V2.0), 3.17; that for `COC(=O)[C@H](Cc1ccccc1)NC(=O)[C@@H](NC(=O)[C@H](CC(C)C)NC(=O)[C@H](O)CC(C)C)C(C)C`, 3.22. The result for `COC(=O)[C@H](Cc1ccccc1)NC(=O)[C@@H](NC(=O)[C@H](CC(C)C)NC(=O)[C@H](O)C(C)C)C(C)C` reads 2.75.

As usually defined, the pKi is −log10 of the Ki, conventionally taken in molar units.
